Assay results reported in US6660752B2, “2,6-Substituted chroman derivatives useful as beta-3 adrenoreceptor agonists” (Bayer Pharmaceuticals Corporation, priority 2001, dated 2003).

target: T1, human beta-3-adrenergic receptor (Homo sapiens, UniProt P13945); test: cAMP production (beta-3 agonist activity) in CHO cells stably expressing human beta-3-adrenergic receptor, cAMP SPA; format: cell-based; details: CHO cells expressing full-length human beta-3-adrenergic receptor, 30 min incubation, 10 μM to 3 nM, read-out: Beta-3 Agonistic Activity: Compounds with EC50 values >1 μM
T1 construct: stably express full-length human beta-3-adrenergic receptor; expressed in transfected cells; host or cells: Chinese hamster ovary (CHO) cells
T1 sequence (P13945 whole entry): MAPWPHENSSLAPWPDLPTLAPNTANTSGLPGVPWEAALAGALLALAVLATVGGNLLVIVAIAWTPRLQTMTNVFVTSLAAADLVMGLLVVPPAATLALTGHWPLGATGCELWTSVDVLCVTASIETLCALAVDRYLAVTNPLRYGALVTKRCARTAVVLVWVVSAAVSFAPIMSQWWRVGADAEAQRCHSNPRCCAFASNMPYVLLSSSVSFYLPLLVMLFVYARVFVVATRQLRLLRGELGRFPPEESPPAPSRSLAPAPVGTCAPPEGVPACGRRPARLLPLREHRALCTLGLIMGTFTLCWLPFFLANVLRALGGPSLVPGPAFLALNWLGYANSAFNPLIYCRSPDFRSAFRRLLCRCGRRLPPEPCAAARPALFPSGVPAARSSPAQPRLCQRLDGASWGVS
Description: Chinese hamster ovary (CHO) cells that stably express full-length human beta-3-adrenergic receptor (Granneman et al., Mol. Pharmacol. 44:264-270, 1993) can be used in the following procedure. The cell line is grown in 90% F12 nutrient mixture (HAM), 10% fetal bovine serum, 100 units/ml penicillin G sodium, […] streptomycin sulfate, and 2 mM L-glutamine at 37° C. in 95% air and 5% CO2. The transfected cell line is maintained with G-418 (800 μg/ml).
To test the agonist activity, cells are exposed to test compound and then assayed for cAMP production. CHO cells (100 μl) are plated at 5×10^4 cells/well of a 96-well plate (Costar, Cambridge, Mass.) to achieve 70% confluency the next day. After overnight incubation at 37° C., media is removed and the cells are treated for 30 minutes at 37° C. with KRP buffer (120 mM NaCl, 5.1 mM KCl, 0.6 mM MgSO4.7H2O, 0.8 mM CaCl2.H2O, […] phosphate buffer, […] Hepes pH 7.4)+[…] IBMX ([…]), +1% DMSO, +/− test compounds ([…]). Test compounds are assayed from 10 μM to 3 nM with 3-fold serial dilutions. The control agonist, isoproterenol (10 mM stock in 1.1 mM ascorbate), is assayed by 3-fold dilution beginning at 1 μM. After a 30-minute incubation with the test compounds, the buffer/compound mixture is removed. The cells are lysed and cAMP levels are measured using the cAMP SPA screening assay system (Amersham, Arlington Heights, Ill.). The cAMP values are then plotted to determine the EC50 of each compound tested.

Compound	EC50
O=[N+]([O-])c1cccc(-c2ccc3c(c2)CC[C@H](CNC[C@H](O)c2cccnc2)O3)c1 [Example 42]	> 1000 nM
Nc1ccc([C@@H](O)CNC[C@H]2CCc3cc(C(=O)N4CCC[C@H]4C(=O)O)ccc3O2)cn1 [Example 363]	> 1000 nM

same assay, conditions: CHO cells expressing full-length human beta-3-adrenergic receptor, 30 min incubation, 10 μM to 3 nM, read-out: Beta-3 Agonistic Activity: Compounds with EC50 values ≦1 μM

Compound	EC50
O=C(NS(=O)(=O)c1ccc(-c2ccc3c(c2)CC[C@H](CNC[C@H](O)c2cccnc2)O3)cc1)c1ccccc1 [Example 294, N-benzoyl-4-[(2R)-2-({[(2R)-2-hydroxy-2-(3-pyridinyl)ethyl]amino}methyl)-3,4-dihydro-2H-chromen-6-yl]benzenesulfonamide]	≤ 1000 nM
N#Cc1ccc(NS(=O)(=O)c2ccc(-c3ccc4c(c3)CC[C@H](CNC[C@H](O)c3cccnc3)O4)cc2)cc1 [Example 256]	≤ 1000 nM
O=C(Nc1cccc(F)c1)NS(=O)(=O)c1ccc(-c2ccc3c(c2)CC[C@H](CNC[C@H](O)c2cccnc2)O3)cc1 [Example 338]	≤ 1000 nM
COc1ccc(-c2ccc3c(c2)CC[C@H](CNC[C@H](O)c2cccnc2)O3)cc1S(=O)(=O)Nc1nccs1 [Example 266]	≤ 1000 nM
COC(=O)c1ccc(-c2ccc3c(c2)CC[C@H](CNC[C@H](O)c2ccc(N)nc2)O3)cc1 [Example 381]	≤ 1000 nM
O=S(=O)(Nc1ncccn1)c1cccc(-c2ccc3c(c2)CC[C@H](CNC[C@H](O)c2cccnc2)O3)c1 [Example 261, 3-[(2R)-2-({[(2R)-2-hydroxy-2-(3-pyridinyl)ethyl]amino}methyl)-3,4-dihydro-2H-chromen-6-yl]-N-(2-pyrimidinyl)benzenesulfonamide]	≤ 1000 nM
CN1C(=O)c2ccc(NS(=O)(=O)c3cccc(-c4ccc5c(c4)CC[C@H](CNC[C@H](O)c4cccnc4)O5)c3)cc2C1=O [Example 252]	≤ 1000 nM
COc1ccc(C(=O)NS(=O)(=O)c2cccc(-c3ccc4c(c3)CCC(CNC[C@H](O)c3cccnc3)O4)c2)cc1 (stereo partly drawn) [Example 303]	≤ 1000 nM
Nc1ccc([C@@H](O)CNC[C@H]2CCc3cc(-c4cccc(C(=O)N5CCCC5)c4)ccc3O2)cn1 [Example 383]	≤ 1000 nM
Cc1ccc(S(=O)(=O)CC(=O)c2ccc(-c3ccc4c(c3)CC[C@H](CNC[C@H](O)c3cccnc3)O4)cc2)cc1 [Example 309]	≤ 1000 nM
O[C@@H](CNC[C@H]1CCc2cc(-c3ccccc3C(F)(F)F)ccc2O1)c1cccnc1 [Example 40]	≤ 1000 nM
Cc1ccc(-c2cc(-c3ccc4c(c3)CC[C@H](CNC[C@H](O)c3cccnc3)O4)ccc2C(=O)O)cc1 [Example 205, 5-[(2R)-2-({[(2R)-2-hydroxy-2-(3-pyridinyl)ethyl]amino}methyl)-3,4-dihydro-2H-chromen-6-yl]-4′-methyl-1,1′-biphenyl-2-carboxylic Acid]	≤ 1000 nM
O=S(=O)(Nc1ncccn1)c1ccc(-c2ccc3c(c2)CC[C@H](CNC[C@H](O)c2cccnc2)O3)cc1 [Example 249A, 4-[(2R)-2-({[(2R)-2-hydroxy-2-(3-pyridinyl)ethyl]amino}methyl)-3,4-dihydro-2H-chromen-6-yl]-N-(2-pyrimidinyl)benzenesulfonamide]	≤ 1000 nM
COc1cccc(C(=O)NS(=O)(=O)c2cccc(-c3ccc4c(c3)CC[C@H](CNC[C@H](O)c3cccnc3)O4)c2)c1 [Example 298]	≤ 1000 nM
Nc1ccc([C@@H](O)CNC[C@H]2CCc3cc(-c4cccc(C(=O)O)c4)ccc3O2)cn1 [Example 386, 3-[(2R)-2-({[(2R)-2-(6-amino-3-pyridinyl)-2-hydroxyethyl]amino}methyl)-3,4-dihydro-2H-chromen-6-yl]benzoic Acid]	≤ 1000 nM
COc1cc(C)nc(NS(=O)(=O)c2cc(-c3ccc4c(c3)CC[C@H](CNC[C@H](O)c3cccnc3)O4)ccc2OC)n1 [Example 271]	≤ 1000 nM
CC(C)Oc1cc(-c2ccc3c(c2)CC[C@H](CNC[C@H](O)c2cccnc2)O3)ccc1C(=O)O [Example 188, 4-[(2R)-2-({[(2R)-2-hydroxy-2-(3-pyridinyl)ethyl]amino}methyl)-3,4-dihydro-2H-chromen-6-yl]-2-isopropoxybenzoic acid]	≤ 1000 nM
N#Cc1ccc(NS(=O)(=O)c2ccc(-c3ccc4c(c3)CC[C@H](CNC[C@H](O)c3cccnc3)O4)cc2OC(F)(F)F)cc1 [Example 262, N-(4-cyanophenyl)-4-[(2R)-2-({[(2R)-2-hydroxy-2-(3-pyridinyl)ethyl]amino}methyl)-3,4-dihydro-2H-chromen-6-yl]-2-(trifluoromethoxy)benzenesulfonamide]	≤ 1000 nM
COc1cc(OC)nc(NS(=O)(=O)c2ccc(-c3ccc4c(c3)CC[C@H](CNC[C@H](O)c3cccnc3)O4)cc2OC(F)(F)F)n1 [Example 274, N-(4,6-dimethoxy-2-pyrimidinyl)-4-[(2R)-2-({[(2R)-2-hydroxy-2-(3-pyridinyl)ethyl]amino}methyl)-3,4-dihydro-2H-chromen-6-yl]-2-(trifluoromethoxy)benzenesulfonamide]	≤ 1000 nM
O=C(Nc1ccc(Cl)cc1)NS(=O)(=O)c1cccc(-c2ccc3c(c2)CC[C@H](CNC[C@H](O)c2cccnc2)O3)c1 [Example 335]	≤ 1000 nM
O=C(O)c1ccc(-c2ccc3c(c2)CC[C@H](CNC[C@H](O)c2cccnc2)O3)cc1Oc1ccc(Cl)cc1 [Example 194, 2-(4-chlorophenoxy)-4-[(2R)-2-({[(2R)-2-hydroxy-2-(3-pyridinyl)ethyl]amino}methyl)-3,4-dihydro-2H-chromen-6-yl]benzoic acid]	≤ 1000 nM
COCC(=O)NS(=O)(=O)c1cccc(-c2ccc3c(c2)CCC(CNC[C@H](O)c2cccnc2)O3)c1 (stereo in doubt) [Example 283, 3-[(2S)-2-({[(2R)-2-hydroxy-2-(3-pyridinyl)ethyl]amino}methyl)-3,4-dihydro-2H-chromen-6-yl]-N-(methoxyacetyl)benzenesulfonamide]	≤ 1000 nM
O=C(Nc1cccc(C(F)(F)F)c1)NS(=O)(=O)c1cccc(-c2ccc3c(c2)CC[C@H](CNC[C@H](O)c2cccnc2)O3)c1 [Example 337]	≤ 1000 nM
CCC(CC)C(=O)NS(=O)(=O)c1ccc(-c2ccc3c(c2)CC[C@H](CNC[C@H](O)c2cccnc2)O3)cc1 [Example 289]	≤ 1000 nM
Cc1cc(Cl)ccc1NC(=O)NS(=O)(=O)c1ccc(-c2ccc3c(c2)CC[C@H](CNC[C@H](O)c2cccnc2)O3)cc1 [Example 330, 3-((1R)-2-{[((2R)-6-{4-[({[(4-chloro-2-methylphenyl)amino]carbonyl}amino)sulfonyl]phenyl}-3,4-dihydro-2H-chromen-2-yl)methyl]amino}-1-hydroxyethyl)pyridine]	≤ 1000 nM
Cc1ccc(NC(=O)NS(=O)(=O)c2ccc(-c3ccc4c(c3)CC[C@H](CNC[C@H](O)c3cccnc3)O4)cc2)cc1 [Example 326, 3-((1R)-1-hydroxy-2-{[((2R)-6-{4-[({[(4-methylphenyl)amino]carbonyl}amino)sulfonyl]phenyl}-3,4-dihydro-2H-chromen-2-yl)methyl]amino}ethyl)pyridine]	≤ 1000 nM
O=S(=O)(Nc1ncccn1)c1ccc(-c2ccc3c(c2)CC[C@@H](CNCC(O)c2cccnc2)O3)cc1 (stereo partly drawn) [Example 249B, 4-[(2S)-2-({[-2-hydroxy-2-(3-pyridinyl)ethyl]amino}methyl)-3,4-dihydro-2H-chromen-6-yl]-N-(2-pyrimidinyl)benzenesulfonamide]	≤ 1000 nM
COc1ccc(-c2ccc3c(c2)CC[C@H](CNC[C@H](O)c2cccnc2)O3)cc1S(=O)(=O)Nc1ncccn1 [Example 272]	≤ 1000 nM
